Results: patent publication US7141592B2, “Substituted oxadiazolidinediones” (Wyeth, priority 2003, dated 2006)

What follows are molecules tested against T1, recombinant human plasminogen activator inhibitor-1 (PAI-1) (Homo sapiens, UniProt P05121) (assay: Primary screen for the PAI-1 inhibition (chromogenic tPA activity, Spectrozyme-tPA)). Details: compound at 100 μM.
T1 construct: purchased Molecular Innovations, Royal Oak, Mich
T1 sequence (P05121 24-402): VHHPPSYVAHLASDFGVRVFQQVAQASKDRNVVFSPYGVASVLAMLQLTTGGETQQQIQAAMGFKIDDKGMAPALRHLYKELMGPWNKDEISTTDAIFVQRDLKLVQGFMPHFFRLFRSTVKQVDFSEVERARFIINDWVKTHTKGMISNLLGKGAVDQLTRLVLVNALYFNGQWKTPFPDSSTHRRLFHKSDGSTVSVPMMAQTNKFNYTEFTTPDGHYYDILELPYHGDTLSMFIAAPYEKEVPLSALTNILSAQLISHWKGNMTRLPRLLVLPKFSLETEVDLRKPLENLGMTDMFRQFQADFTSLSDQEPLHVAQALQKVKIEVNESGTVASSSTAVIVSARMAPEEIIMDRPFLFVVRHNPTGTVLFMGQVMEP
Format: biochemical
Description: Test compounds are dissolved in DMSO at a final concentration of 10 mM, then diluted 100× in physiologic buffer. The inhibitory assay is initiated by the addition of the substituted oxadiazolidinedione (1–100 μM final concentration, maximun DMSO concentration of 0.2%) in a pH 6.6 buffer containing 140 nM recombinant human plasminogen activator inhibitor-1 (PAI-1; Molecular Innovations, Royal Oak, Mich.). Following a 1 hour incubation at room temperature, 70 nM of recombinant human tissue plasminogen activator (tPA) is added, and the combination of the substituted oxadiazolidinedione, PAI-1 and tPA is incubated for an additional 30 minutes. Following the second incubation, Spectrozyme-tPA (American Diagnostica, Greenwich, Conn.), a chromogenic substrate for tPA, is added and absorbance read at 405 nm at 0 and 60 minutes. Relative PAI-1 inhibition is equal to the residual tPA activity in the presence of the test compound and PAI-1. Control treatments include the complete inhibition of tPA by PAI-1 at the molar ratio employed (2:1), and the absence of any effect of the substituted oxadiazolidinedione on tPA alone.
Work on `O=c1[nH]c(=O)n(Cc2ccc(-c3cccc(OCc4ccc(Br)cc4)c3)cc2)o1` [Compound 54, 2-({3′-[(4-bromobenzyl)oxy]-1,1′-biphenyl-4-yl}methyl)-1,2,4-oxadiazolidine-3,5-dione] yielded an inhibition at 100 µM of 10%. In the case of `O=c1[nH]c(=O)n(Cc2cn(Cc3ccccc3)c3ccc(OCc4cccc(Br)c4)cc23)o1` [Compound 8, 2-({1-benzyl-5-[(3-bromobenzyl)oxy]-1H-indol-3-yl}methyl)-1,2,4-oxadiazolidine-3,5-dione], the inhibition at 100 µM is reported as 94%. `O=c1[nH]c(=O)n(Cc2cccc(C#CCOc3ccc(Br)cc3)c2)o1` [Compound 66, 2-{3-[3-(4-bromophenoxy)prop-1-ynyl]benzyl}-1,2,4-oxadiazolidine-3,5-dione] was tested, and the inhibition at 100 µM was 85%. In the case of `C=CCn1cc(Cn2oc(=O)[nH]c2=O)c2cc(OCc3ccc(Cl)c(Cl)c3)ccc21` [Compound 34, 2-({1-allyl-5-[(3,4-dichlorobenzyl)oxy]-1H-indol-3-yl}methyl)-1,2,4-oxadiazolidine-3,5-dione], the inhibition at 100 µM is reported as 87%. Molecule `O=c1[nH]c(=O)n(Cc2cccc(-c3cccc(OCc4ccccc4)c3)c2)o1` [Compound 40, 2-{[3′-(benzyloxy)-1,1′-biphenyl-3-yl]methyl}-1,2,4-oxadiazolidine-3,5-dione] has an inhibition at 100 µM of 96%. For `O=c1[nH]c(=O)n(Cc2cccc(OCc3cccc(Br)c3)c2OCc2cccc(Br)c2)o1` [Compound 84, 2-{2,3-bis[(3-bromobenzyl)oxy]benzyl}-1,2,4-oxadiazolidine-3,5-dione], the inhibition at 100 µM was 95%. `O=c1[nH]c(=O)n(Cc2cc(OCc3cccc(Br)c3)cc(OCc3cccc(Br)c3)c2)o1` [Compound 74, 2-{3,5-bis[(3-bromobenzyl)oxy]benzyl}-1,2,4-oxadiazolidine-3,5-dione] gave an inhibition at 100 µM of 92%. `CCCCC#Cc1ccc(Cn2oc(=O)[nH]c2=O)cc1` [Compound 57, 2-(4-hex-1-ynylbenzyl)-1,2,4-oxadiazolidine-3,5-dione] was tested, and the inhibition at 100 µM was 56%. Work on `COc1cc(Cn2oc(=O)[nH]c2=O)cc(OCc2cccc(Br)c2)c1OCc1cccc(Br)c1` [Compound 79, 2-{3,4-bis[(3-bromobenzyl)oxy]-5-methoxybenzyl}-1,2,4-oxadiazolidine-3,5-dione] yielded an inhibition at 100 µM of 87%. `Cc1ccc(COc2cccc(-c3cccc(Cn4oc(=O)[nH]c4=O)c3)c2)cc1` [Compound 45, 2-({3′-[(4-methylbenzyl)oxy]-1,1′-biphenyl-3-yl}methyl)-1,2,4-oxadiazolidine-3,5-dione] showed an inhibition at 100 µM of 94%. `COc1cc(Cn2oc(=O)[nH]c2=O)cc(OCc2cccc(C)c2)c1OCc1cccc(C)c1` [Compound 77, 2-{3-methoxy-4,5-bis[(3-methylbenzyl)oxy]benzyl}-1,2,4-oxadiazolidine-3,5-dione] was tested, and the inhibition at 100 µM was 88%. For `CC(C)(C)c1ccc(OCC#Cc2cccc(Cn3oc(=O)[nH]c3=O)c2)cc1` [Compound 65, 2-{3-[3-(4-tert-butylphenoxy)prop-1-ynyl]benzyl}-1,2,4-oxadiazolidine-3,5-dione], the inhibition at 100 µM was 77%. `O=c1[nH]c(=O)n(Cc2cn(Cc3ccccc3)c3ccc(OCc4ccc(C(F)(F)F)cc4)cc23)o1` [Compound 13, 2-[(1-benzyl-5-{[4-(trifluoromethyl)benzyl]oxy}-1H-indol-3-yl)methyl]-1,2,4-oxadiazolidine-3,5-dione] gave an inhibition at 100 µM of 100%. Work on `COc1cc(Cn2oc(=O)[nH]c2=O)cc(OCc2cccc(Cl)c2)c1OCc1cccc(Cl)c1` [Compound 78, 2-{3,4-bis[(3-chlorobenzyl)oxy]-5-methoxybenzyl}-1,2,4-oxadiazolidine-3,5-dione] yielded an inhibition at 100 µM of 91%. `Cc1cccc(COc2cc(Cn3oc(=O)[nH]c3=O)cc(OCc3cccc(C)c3)c2)c1` [Compound 73, 2-{3,5-bis[(3-methylbenzyl)oxy]benzyl}-1,2,4-oxadiazolidine-3,5-dione] was tested, and the inhibition at 100 µM was 81%. `Cc1cccc(COc2cccc(-c3cccc(Cn4oc(=O)[nH]c4=O)c3)c2)c1` [Compound 46, 2-({3′-[(3-methylbenzyl)oxy]-1,1′-biphenyl-3-yl}methyl)-1,2,4-oxadiazolidine-3,5-dione] gave an inhibition at 100 µM of 80%. `Cc1cccc(COc2cccc(Cn3oc(=O)[nH]c3=O)c2OCc2cccc(C)c2)c1` [Compound 82, 2-{2,3-bis[(3-methylbenzyl)oxy]benzyl}-1,2,4-oxadiazolidine-3,5-dione] gave an inhibition at 100 µM of 80%. In the case of `O=c1[nH]c(=O)n(Cc2cccc(C#Cc3ccccc3)c2)o1` [Compound 60, 2-[3-(phenylethynyl)benzyl]-1,2,4-oxadiazolidine-3,5-dione], the inhibition at 100 µM is reported as 38%. For `O=c1[nH]c(=O)n(Cc2cc(OCc3ccc(C(F)(F)F)cc3)cc(OCc3ccc(C(F)(F)F)cc3)c2)o1` [Compound 72, 2-(3,5-bis{[4-(trifluoromethyl)benzyl]oxy}benzyl)-1,2,4-oxadiazolidine-3,5-dione], the inhibition at 100 µM was 87%. With “2-{[4-(phenylethynyl)thien-2-yl]methyl}-1,2,4-oxadiazolidine-3,5-dione [Compound 58]” the “% Inhibition @ 100 μM” value was 45%. For `O=c1[nH]c(=O)n(Cc2cc(OCc3ccccc3Br)cc(OCc3ccccc3Br)c2)o1` [Compound 75, 2-{3,5-bis[(2-bromobenzyl)oxy]benzyl}-1,2,4-oxadiazolidine-3,5-dione], the inhibition at 100 µM was 91%. Molecule `C=CCn1cc(Cn2oc(=O)[nH]c2=O)c2cc(OCc3ccc(Br)cc3)ccc21` [Compound 25, 2-({1-allyl-5-[(4-bromobenzyl)oxy]-1H-indol-3-yl}methyl)-1,2,4-oxadiazolidine-3,5-dione] has an inhibition at 100 µM of 64%. With `C#CCn1cc(Cn2oc(=O)[nH]c2=O)c2cc(OCc3ccc4ccccc4c3)ccc21` [Compound 20, 2-{[5-(2-naphthylmethoxy)-1-(2-propynyl)-1H-indol-3-yl]methyl}-1,2,4-oxadiazolidine-3,5-dione] the inhibition at 100 µM was 84%. Work on `C#CCn1cc(Cn2oc(=O)[nH]c2=O)c2cc(OCc3ccc(C(C)(C)C)cc3)ccc21` [Compound 23, 2-{[5-[(4-tert-butylbenzyl)oxy]-1-(2-propynyl)-1H-indol-3-yl]methyl}-1,2,4-oxadiazolidine-3,5-dione] yielded an inhibition at 100 µM of 91%. In the case of `O=c1[nH]c(=O)n(Cc2cc(OCc3cccc(Cl)c3)cc(OCc3cccc(Cl)c3)c2)o1` [Compound 71, 2-{3,5-bis[(3-chlorobenzyl)oxy]benzyl}-1,2,4-oxadiazolidine-3,5-dione], the inhibition at 100 µM is reported as 85%. For `O=c1[nH]c(=O)n(Cc2cccc(OCc3ccccc3Br)c2OCc2ccccc2Br)o1` [Compound 85, 2-{2,3-bis[(2-bromobenzyl)oxy]benzyl}-1,2,4-oxadiazolidine-3,5-dione], the inhibition at 100 µM was 93%. Molecule `C#CCn1cc(Cn2oc(=O)[nH]c2=O)c2cc(OCc3ccccc3Cl)ccc21` [Compound 17, 2-{[5-[(2-chlorobenzyl)oxy]-1-(2-propynyl)-1H-indol-3-yl]methyl}-1,2,4-oxadiazolidine-3,5-dione] has an inhibition at 100 µM of 49%. `O=c1[nH]c(=O)n(Cc2cccc(-c3cccc(OCc4ccc(Cl)c(Cl)c4)c3)c2)o1` [Compound 43, 2-({3′-[(3,4-dichlorobenzyl)oxy]-1,1′-biphenyl-3-yl}methyl)-1,2,4-oxadiazolidine-3,5-dione] gave an inhibition at 100 µM of 100%. `C#CCn1cc(Cn2oc(=O)[nH]c2=O)c2cc(OCc3cccc(Br)c3)ccc21` [Compound 26, 2-{[5-[(3-bromobenzyl)oxy]-1-(2-propynyl)-1H-indol-3-yl]methyl}-1,2,4-oxadiazolidine-3,5-dione] gave an inhibition at 100 µM of 100%.
